According to ChEMBL document CHEMBL4831506, “Discovery of novel trimethoxyphenylbenzo[d]oxazoles as dual tubulin/PDE4 inhibitors capable of inducing apoptosis at G2/M phase arrest in glioma and lung cancer cells” (Eur J Med Chem, 2021):

How the values were obtained:
A549 [1] = assay: Antiproliferative activity against human A549 cells after 48 hrs by MTT assay; assay type: functional, cell-based; details: A549, 48 h
A549 [2] = assay: Cell cycle arrest in human A549 cells assessed as G0/G1 phase at 500 nM incubated for 24 hrs by propidium iodide staining based flow cytometry analysis (reference value: 79.14%); assay type: functional
A549 [3] = assay: Cell cycle arrest in human A549 cells assessed as S phase at 500 nM measured after 24 hrs by propidium iodide staining based flow cytometry analysis (reference value: 14.78%); assay type: functional
A549 [4] = assay: Cell cycle arrest in human A549 cells assessed as G0/G1 phase at 200 nM measured after 24 hrs by propidium iodide staining based flow cytometry analysis (reference value: 79.14%); assay type: functional
A549 [5] = assay: Cell cycle arrest in human A549 cells assessed as G2/M phase at 200 nM measured after 24 hrs by propidium iodide staining based flow cytometry analysis (reference value: 6.08%); assay type: functional
U-251 [6] = assay: Cell cycle arrest in human U-251 cells assessed as G0/G1 phase at 200 nM measured after 24 hrs by propidium iodide staining based flow cytometry analysis (reference value: 67.34%); assay type: functional
U-251 [7] = assay: Cell cycle arrest in human U-251 cells assessed as G0/G1 phase at 500 nM measured after 24 hrs by propidium iodide staining based flow cytometry analysis (reference value: 67.34%); assay type: functional
U-251 [8] = assay: Cell cycle arrest in human U-251 cells assessed as G2/M phase at 500 nM measured after 24 hrs by propidium iodide staining based flow cytometry analysis (reference value: 14.43%); assay type: functional
U-251 [9] = assay: Cell cycle arrest in human U-251 cells assessed as G2/M phase at 1000 nM measured after 24 hrs by propidium iodide based flow cytometry analysis (reference value: 14.43%); assay type: functional
A549 [10] = assay: Induction of apoptosis in human A549 cells assessed as increase in early apoptotic cells at 500 nM measured after 24 hrs by PI/FITC analysis (reference value: 0.955%); assay type: functional
A549 [11] = assay: Induction of apoptosis in human A549 cells assessed as increase in early apoptotic cells at 200 nM measured after 24 hrs by PI/FITC analysis (reference value: 0.955%); assay type: functional
A549 [12] = assay: Induction of apoptosis in human A549 cells assessed as increase in late apoptotic cells at 200 nM measured after 24 hrs by PI/FITC analysis (reference value: 0.955%); assay type: functional
U-251 [13] = assay: Induction of apoptosis in human U-251 cells assessed as increase in early apoptotic cells at 200 nM measured after 24 hrs by PI/FITC analysis (reference value: 1.12%); assay type: functional
U-251 [14] = assay: Induction of apoptosis in human U-251 cells assessed as increase in late apoptotic cells at 200 nM measured after 24 hrs by PI/FITC analysis (reference value: 0.311%); assay type: functional
U-251 [15] = assay: Induction of apoptosis in human U-251 cells assessed as increase in viable cells at 1000 nM measured after 24 hrs by PI/FITC analysis (reference value: 98.3%); assay type: functional
U-251 [16] = assay: Induction of apoptosis in human U-251 cells assessed as increase in late apoptotic cells at 1000 nM measured after 24 hrs by PI/FITC analysis (reference value: 0.311%); assay type: functional
A549 [17] = assay: Cell cycle arrest in human A549 cells assessed as increase in cyclin B1 expression by Western blot analysis; assay type: functional, cell-based; details: dose 50-500 nM

IC50 (A549 [1]): 55 nM
SMILES: COc1cc(-c2cccc3nc(-c4ccc5cc[nH]c5c4)oc23)cc(OC)c1OC
Activity (A549 [2]): 3.89%
Activity (A549 [3]): 28.03%
Activity (A549 [4]): 15.24%
Activity (A549 [5]): 61.33%
Activity (U-251 [6]): 43.71%
Activity (U-251 [7]): 34.64%
Activity (U-251 [8]): 42.9%
Activity (U-251 [9]): 71.69%
Activity (A549 [10]): 11.1%
Activity (A549 [11]): 9.7%
Activity (A549 [12]): 0.85%
Activity (U-251 [13]): 3.09%
Activity (U-251 [14]): 6.95%
Activity (U-251 [15]): 77.4%
Activity (U-251 [16]): 15.8%
Activity (A549 [17]): Dose-Dependent Effect
